Patent US20240293364A1, “BIOMARKERS FOR CANCER THERAPY USING MDM2 ANTAGONISTS” (OTSUKA PHARMACEUTICAL CO., LTD., priority 2021, published 2024)

Legend:
DDR signalling pathway = assay: Western blotting of DDR signalling in ATM mutant cell lines; type: cell-based; details: ATM mutant cell lines (FIG. 2E)
Experimental: The cell lysates were then analysed by Western blotting. […] After washing, blots were incubated for 1 hour with infrared dye labelled anti-rabbit IR800 or anti-goat IR800 secondary antibodies at a dilution of 1: 10,000 in Odyssey blocking buffer (LiCor Biosciences, Lincoln, USA).

[1] = system: patient-derived organoids (PDOs); assay: Proliferation assays on patient-derived organoids (PDOs), BRCA1/BRCA2/ATM status; type: cell-based
Experimental: Organoids were retrieved from the CrownBIO organoid bank and expanded before getting enough quantity according to standard operation procedure. One day before organoids seeding, the needed number of organoids were passaged 1:1 using 50% Matrigel and 50% corresponding culture medium. On Day 0 organoids were seeded and compound added: organoids were collected by adding 20 μl 100× Dispase solution to each well from a 6-well plate, and incubating at 37C for 30 min. After incubation, organoids were collected from all wells and pipetted through a pre-wet 100 μm filter into a 50 ml plastic tube, then filtered the flow through over a pre-wet 20 μm filter, inverted the 20 μm filter and recovered the organoids in a new 50 ml tube, Collect organoids were then resuspended in the corresponding culture media, and counted. Organoids cell suspensions were added to 384-well plate by Multidrop dispenser. 2-4 hours after organoids seeding, compounds were added by Tecan D300e, then plates were placed back into incubator for 5 days' incubation. On day 5, proliferation was assayed by CellTiter-Glo assay. […] The plate was then read (for luminescence) in an Envision plate reader.

[2] = system: panel of 237 cancer cell lines; assay: Cell panel screen of 237 cancer cell lines; type: cell-based; details: MSI-H colorectal cell lines
Source text: Genomic features for these cell lines such as somatic mutations, copy number alterations and hypermethylation were obtained from the list of Cancer Functional Events as mentioned in Garnett et al (2016) ANOVA method was used to identify significant associations of genomics features to drug response.

MSI-H cell lines = assay: Proliferation assays on cancer cell lines (CellTiter-Glo), MSI-H cell lines; type: cell-based; details: eight MSI-H cell lines from different indications (FIG. 4B)
Experimental: Cancer cells were cultured in appropriate medium. […] Each cell line was tested in triplicates.

[3] = system: xenograft model of MSI-H colorectal cancer (HCT-116); assay: In vivo efficacy, HCT116 xenograft; design: species or system BALB/c nude mice; details: HCT-116 xenograft, 50 mg/kg daily (FIG. 4D)
Experimental: 5×10^6 HCT116 cells (in 100 μl of PBS) were injected subcutaneously into the right hind flank of groups of BALB/c nude mice. Tumours were measured externally by using a pair of digital callipers and volumes calculated as length×width^2×0.523. Before starting the study, the mice were arranged into groups of 8 according to tumour volume; mean volume should be circa 100 mm^3 with a normal range of 50 to 150 mm^3. […] Tumour volumes were measured every 2 to 3 days; animals were sacrificed when tumour volume was >1000 mm^3 or if the tumours started to show any abnormalities, such as ulceration.

For `CC[C@@](O)(c1cc(F)c2c(c1)C(=O)N([C@H](c1ccc(Cl)cc1)[C@H](C)C(=O)O)[C@@]2(OC)c1ccc(Cl)cc1)C1CCOCC1` [Example 124, (2S,3S)-3-(4-chlorophenyl)-3-[(1R)-1-(4-chlorophenyl)-7-fluoro-5-[(1S)-1-hydroxy-1-(oxan-4-yl)propyl]-1-methoxy-3-oxo-2,3-dihydro-1H-isoindol-2-yl]-2-methylpropanoic acid], the “modulation of the DDR signalling pathway (western blot)” value (DDR signalling pathway) was “clear modulation of the DDR signalling pathway”, the “sensitivity as measured by reduction in cell proliferation” value (shortened to “sensitivity as measured by reduction”) ([1]; 4 PDOs with alterations in either ATM, BRCA1 and/or BRCA2 (FIG. 2F-G)) was “showed sensitivity” and the “sensitivity as measured by reduction” value ([1]; 4 additional PDOs with no alterations in ATM, BRCA1 and/or BRCA2) was “resistant”. The “sensitivity in the cell panel data” value [2] was “sensitive”, the “sensitivity as measured by reduction” value (MSI-H cell lines) was “showed sensitivity” and the tumour growth inhibition [3] was “significantly inhibits tumour growth”.
